Data: patent US7749530B2, “Kinase inhibitors” (Allergan, Inc., priority 2005, dated 2010)

Experiment: in vitro release study of TKI from ocular implants (polymer composites)
Assay type: physicochemical
Conditions: for burst release at day 1 / period of release at the stated rate: formulation of 50% polymer (RG755 or RG504) and 50% TKI; for time over which the ocular composite continues to release the TKI / release of the TKI from the ocular implant (percent of TKI): phosphate buffered saline release medium pH 7.4, 37° C.; for release of the TKI from the ocular implant (percent of TKI): within 30 days
Protocol: The in vitro release study was carried out in an incubator at 37° C. shaking at 120 rpm.
The release medium was 0.02% Polysorbate 80 containing 10 mM phosphate buffered saline, pH7.4. The medium and implants were placed in 20 mL scintillation vials. At given time points, the medium containing released drug was collected and replaced with fresh medium. The concentration of the compound in the release medium was analyzed using HPLC.

## Cc1cc(C(=O)Nc2cccc(C(=O)c3ccc4c(c3)NC(=O)C4=CNc3ccc(CN4CCCC4)cc3)c2)n(C)n1 [Example 206, 2,5-Dimethyl-2H-pyrazole-3-carboxylic acid (3-{2-oxo-3-[(4-pyrrolidin-1-ylmethyl-phenylamino)-methylene]-2,3-dihydro-1H-indole-6-carbonyl}-phenyl)-amide]
  burst release at day 1: minimal burst release
  period of release at the stated rate: approximately 50 days
  time over which the ocular composite continues to release the TKI: > 6 months
  release of the TKI from the ocular implant (percent of TKI): 2-12%

## Cc1cc(C(=O)Nc2cccc(C(=O)c3ccc4c(c3)NC(=O)C4=CNc3ccc(CCCC(=O)O)cc3)c2)n(C)n1 [Example 324, 4-{4-[(6-{3-[(2,5-Dimethyl-2H-pyrazole-3-carbonyl)-amino]-benzoyl}-2-oxo-1,2-dihydro-indol-3-ylidenemethyl)-amino]-phenyl}-butyric acid]
  time over which the ocular composite continues to release the TKI: > 6 months
  release of the TKI from the ocular implant (percent of TKI): 2-8%

## Cc1ccoc1C(=O)Nc1cccc(C(=O)c2ccc3c(c2)NC(=O)C3=CNc2ccc(CCC(=O)[O-])cc2)c1.[Na+] [Example 378, 3-{4-[(6-{3-[(3-Methyl-furan-2-carbonyl)-amino]-benzoyl}-2-oxo-1,2-dihydro-indol-3-ylidenemethyl)-amino]-phenyl}-propionic acid, sodium salt]
  burst release at day 1: minimal burst release
  period of release at the stated rate: approximately 50 days
  time over which the ocular composite continues to release the TKI: > 6 months
  release of the TKI from the ocular implant (percent of TKI): 29-35%
